Data reported in US9150577B2, “Heterocyclic compounds containing an indole core” (Boehringer Ingelheim International GmbH, priority 2009, dated 2015).

Molecular target: Human RSK2 (Homo sapiens (Human), UniProt P51812)
Assay: Human RSK2 assay (Kinase Glo Plus, residual ATP);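 note: recombinant human RSK2 phosphorylating a substrate peptide, 90 min at 28 °C, leftover ATP read by luminescence, RLU scaled between no-kinase background and uninhibited kinase controls, 4-parameter fit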
Format: biochemical

Chain of Human RSK2 (P51812 whole entry): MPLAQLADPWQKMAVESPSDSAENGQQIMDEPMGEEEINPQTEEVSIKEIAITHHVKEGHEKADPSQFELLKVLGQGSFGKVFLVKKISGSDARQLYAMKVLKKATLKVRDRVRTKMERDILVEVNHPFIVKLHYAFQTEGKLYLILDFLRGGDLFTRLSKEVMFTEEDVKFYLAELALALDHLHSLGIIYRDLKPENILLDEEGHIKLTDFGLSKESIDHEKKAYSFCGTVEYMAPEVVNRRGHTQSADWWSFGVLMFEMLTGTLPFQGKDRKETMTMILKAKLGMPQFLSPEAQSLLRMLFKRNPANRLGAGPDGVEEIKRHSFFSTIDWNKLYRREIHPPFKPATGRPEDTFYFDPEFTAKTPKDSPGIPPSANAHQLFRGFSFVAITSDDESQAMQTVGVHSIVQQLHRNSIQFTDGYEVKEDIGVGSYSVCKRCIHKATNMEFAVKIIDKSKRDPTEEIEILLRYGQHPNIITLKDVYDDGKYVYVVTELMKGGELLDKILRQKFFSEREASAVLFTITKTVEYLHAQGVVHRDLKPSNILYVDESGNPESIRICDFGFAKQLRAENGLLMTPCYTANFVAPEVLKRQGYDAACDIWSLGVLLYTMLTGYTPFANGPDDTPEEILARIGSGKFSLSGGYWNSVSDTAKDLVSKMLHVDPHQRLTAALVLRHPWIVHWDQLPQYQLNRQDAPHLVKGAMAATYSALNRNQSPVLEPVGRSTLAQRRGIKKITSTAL

| Structure (SMILES) | IC50 [nM] |
| --- | --- |
| CC(C)n1c(NC(=O)c2ccc3cc4n(c3c2)C(C)(C)CNC4=O)nc2ccccc21 [Example 73, 4,4-dimethyl-1-oxo-N-[1-(propan-2-yl)-1H-benzimidazol-2-yl]-1,2,3,4-tetrahydropyrazino[1,2-a]indole-7-carboxamide] | 2 |
| CN1CCC(n2c(NC(=O)c3ccc4cc5n(c4c3)CCCNC5=O)nc3ccccc32)CC1 [Example 77, N-[1-(1-methylpiperidin-4-yl)-1H-benzimidazol-2-yl]-1-oxo-2,3,4,5-tetrahydro-1H-[1,4]diazepino[1,2-a]indole-8-carboxamide] | 14 |
| CCn1c(NC(=O)c2ccc3cc4n(c3c2)C(C)(C)CNC4=O)nc2ccccc21 [Example 82, N-(1-ethyl-1H-benzimidazol-2-yl)-4,4-dimethyl-1-oxo-1,2,3,4-tetrahydropyrazino[1,2-a]indole-7-carboxamide] | 0.25 |
| CC1CCNC(=O)c2cc3ccc(C(=O)Nc4cc(C(C)(C)C)on4)cc3n21 (stereo not drawn) [Example 160, N-(5-tert-butyl-1,2-oxazol-3-yl)-5-methyl-1-oxo-2,3,4,5-tetrahydro-1H-[1,4]diazepino[1,2-a]indole-8-carboxamide] | 32 |
| CC1CNC(=O)c2cc3ccc(C(=O)Nc4nc5ccccc5n4CCCN(C)C)cc3n21 (stereo not drawn) [Example 100, N-{1-[3-(dimethylamino)propyl]-1H-benzimidazol-2-yl}-4-methyl-1-oxo-1,2,3,4-tetrahydropyrazino[1,2-a]indole-7-carboxamide] | 1.3 |
| CC1(C)CNC(=O)c2cc3ccc(C(=O)Nc4cccnc4)cc3n2C1 [Example 9, 4,4-dimethyl-1-oxo-N-(pyridin-3-yl)-2,3,4,5-tetrahydro-1H-[1,4]diazepino[1,2-a]indole-8-carboxamide] | 4600 |
| O=C(Nc1cnn(Cc2ccccc2)c1)c1ccc2cc3n(c2c1)CC1(CC1)CNC3=O [Example 125, N-(1-benzyl-1H-pyrazol-4-yl)-1′-oxo-2′,3′-dihydro-1′H-spiro[cyclopropane-1,4′-[1,4]diazepino[1,2-a]indole]-8′-carboxamide] | 11 |
| CC1(C)CNC(=O)c2cc3ccc(C(=O)Nc4cn[nH]c4)cc3n2C1 [Example 16, 4,4-dimethyl-1-oxo-N-(1H-pyrazol-4-yl)-2,3,4,5-tetrahydro-1H-[1,4]diazepino[1,2-a]indole-8-carboxamide] | 2500 |
| CC1CCNC(=O)c2cc3ccc(C(=O)Nc4cccnc4)cc3n21 (stereo not drawn) [Example 10, 5-methyl-1-oxo-N-(pyridin-3-yl)-2,3,4,5-tetrahydro-1H-[1,4]diazepino[1,2-a]indole-8-carboxamide] | 41 |
| Cc1cc(NC(=O)c2ccc3cc4n(c3c2)CC(C)CNC4=O)no1 (stereo not drawn) [Example 182, 4-methyl-N-(5-methyl-1,2-oxazol-3-yl)-1-oxo-2,3,4,5-tetrahydro-1H-[1,4]diazepino[1,2-a]indole-8-carboxamide] | 150 |
| C[C@H]1NC(=O)c2cc3ccc(C(=O)Nc4nc5ccccc5n4CCCN(C)C)cc3n2[C@H]1C [Example 141, (3R,4S)-N-{1-[3-(dimethylamino)propyl]-1H-benzimidazol-2-yl}-3,4-dimethyl-1-oxo-1,2,3,4-tetrahydropyrazino[1,2-a]indole-7-carboxamide] | 13.7 |
| CC1CNC(=O)c2cc3ccc(C(=O)Nc4cc(C(C)(C)C)on4)cc3n21 (stereo not drawn) [Example 176, N-(5-tert-butyl-1,2-oxazol-3-yl)-4-methyl-1-oxo-1,2,3,4-tetrahydropyrazino[1,2-a]indole-7-carboxamide] | 25 |
| CC(C)n1c(NC(=O)c2ccc3cc4n(c3c2)C(C)CCNC4=O)nc2ccccc21 (stereo not drawn) [Example 165, 5-methyl-1-oxo-N-[1-(propan-2-yl)-1H-benzimidazol-2-yl]-2,3,4,5-tetrahydro-1H-[1,4]diazepino[1,2-a]indole-8-carboxamide] | 1.8 |
| O=C(Nc1cnn(Cc2ccccc2)c1)c1ccc2cc3n(c2c1)CC1(CCNCC1)CNC3=O [Example 238, N-(1-benzyl-1H-pyrazol-4-yl)-1-oxo-2,3-dihydro-1H-spiro[1,4-diazepino[1,2-a]indole-4,4′-piperidine]-8-carboxamide] | 350 |
| CC1(C)CNC(=O)c2cc3ccc(C(=O)Nc4cnn(Cc5ccccc5)c4)cc3n21 [Example 134, N-(1-benzyl-1H-pyrazol-4-yl)-4,4-dimethyl-1-oxo-1,2,3,4-tetrahydropyrazino[1,2-a]indole-7-carboxamide] | 1.8 |
| Cc1cc(NC(=O)c2ccc3cc4n(c3c2)[C@@H](C)[C@H](C)NC4=O)no1 (relative stereo) [Example 168, Trans-3,4-dimethyl-N-(5-methyl-1,2-oxazol-3-yl)-1-oxo-1,2,3,4-tetrahydropyrazino[1,2-a]indole-7-carboxamide] | 160 |
| CN(C)CCCn1c(NC(=O)c2ccc3cc4n(c3c2)CC(C)(C)CNC4=O)nc2cc(Cl)ccc21 [Example 50, N-{5-chloro-1-[3-(dimethylamino)propyl]-1H-benzimidazol-2-yl}-4,4-dimethyl-1-oxo-2,3,4,5-tetrahydro-1H-[1,4]diazepino[1,2-a]indole-8-carboxamide] | 34 |

Second part, the compound after the results:

| IC50 [nM] | Structure (SMILES) |
| --- | --- |
| 17 | O=C(Nc1cnn(CCc2ccccc2)c1)c1ccc2cc3n(c2c1)CCCNC3=O [Example 113, 1-oxo-N-[1-(2-phenylethyl)-1H-pyrazol-4-yl]-2,3,4,5-tetrahydro-1H-[1,4]diazepino[1,2-a]indole-8-carboxamide] |
| 3.8 | CN(C)c1cccc(Cn2cc(NC(=O)c3ccc4cc5n(c4c3)CCCNC5=O)cn2)c1 [Example 120, N-{1-[3-(dimethylamino)benzyl]-1H-pyrazol-4-yl}-1-oxo-2,3,4,5-tetrahydro-1H-[1,4]diazepino[1,2-a]indole-8-carboxamide] |
| 190 | O=C(Nc1ccc(Cl)cc1)c1ccc2cc3n(c2c1)CCCNC3=O [Example 4, N-(4-chlorophenyl)-1-oxo-2,3,4,5-tetrahydro-1H-[1,4]diazepino[1,2-a]indole-8-carboxamide] |
| 4 | O=C(Nc1cnn(Cc2ccccc2)c1)c1ccc2cc3n(c2c1)CCCNC3=O [Example 32, N-(1-benzyl-1H-pyrazol-4-yl)-1-oxo-2,3,4,5-tetrahydro-1H-[1,4]diazepino[1,2-a]indole-8-carboxamide] |
| 1.9 | Cc1cc(C)cc(Cn2cc(NC(=O)c3ccc4cc5n(c4c3)CCCNC5=O)cn2)c1 [Example 28, N-[1-(3,5-dimethylbenzyl)-1H-pyrazol-4-yl]-1-oxo-2,3,4,5-tetrahydro-1H-[1,4]diazepino[1,2-a]indole-8-carboxamide] |
| 270 | O=C(Nc1cccc(Cl)c1)c1ccc2cc3n(c2c1)CCCNC3=O [Example 1, N-(3-chlorophenyl)-1-oxo-2,3,4,5-tetrahydro-1H-[1,4]diazepino[1,2-a]indole-8-carboxamide] |
| 11 | CC(C)CCn1cc(NC(=O)c2ccc3cc4n(c3c2)CCCNC4=O)cn1 [Example 35, N-[1-(3-methylbutyl)-1H-pyrazol-4-yl]-1-oxo-2,3,4,5-tetrahydro-1H-[1,4]diazepino[1,2-a]indole-8-carboxamide] |
| 93 | O=C(Nc1cc[nH]n1)c1ccc2cc3n(c2c1)CCCNC3=O [Example 220, 1-oxo-N-(1H-pyrazol-3-yl)-2,3,4,5-tetrahydro-1H-[1,4]diazepino[1,2-a]indole-8-carboxamide] |
| 106 | N#Cc1ccc(NC(=O)c2ccc3cc4n(c3c2)CCCNC4=O)cc1 [Example 185, N-(4-cyanophenyl)-1-oxo-2,3,4,5-tetrahydro-1H-[1,4]diazepino[1,2-a]indole-8-carboxamide] |
| 5.4 | CC(C)(O)Cn1c(NC(=O)c2ccc3cc4n(c3c2)CCCNC4=O)nc2ccccc21 [Example 85, N-[1-(2-hydroxy-2-methylpropyl)-1H-benzimidazol-2-yl]-1-oxo-2,3,4,5-tetrahydro-1H-[1,4]diazepino[1,2-a]indole-8-carboxamide] |
| 220 | O=C(Nc1ccccn1)c1ccc2cc3n(c2c1)CCCNC3=O [Example 154, 1-oxo-N-(pyridin-2-yl)-2,3,4,5-tetrahydro-1H-[1,4]diazepino[1,2-a]indole-8-carboxamide] |
| 10 | Cc1nc2ccc(NC(=O)c3ccc4cc5n(c4c3)CCCNC5=O)cc2s1 [Example 205, N-(2-methyl-1,3-benzothiazol-6-yl)-1-oxo-2,3,4,5-tetrahydro-1H-[1,4]diazepino[1,2-a]indole-8-carboxamide] |
| 1300 | Cc1nn(C)c2ncc(NC(=O)c3ccc4cc5n(c4c3)CCCNC5=O)cc12 [Example 189, N-(1,3-dimethyl-1H-pyrazolo[3,4-b]pyridin-5-yl)-1-oxo-2,3,4,5-tetrahydro-1H-[1,4]diazepino[1,2-a]indole-8-carboxamide] |
| 370 | O=C(Nc1nc2ccccc2o1)c1ccc2cc3n(c2c1)CCCNC3=O [Example 112, N-(1,3-benzoxazol-2-yl)-1-oxo-2,3,4,5-tetrahydro-1H-[1,4]diazepino[1,2-a]indole-8-carboxamide] |
| 18 | O=C(Nc1cnn(-c2ccccc2)c1)c1ccc2cc3n(c2c1)CCCNC3=O [Example 192, 1-oxo-N-(1-phenyl-1H-pyrazol-4-yl)-2,3,4,5-tetrahydro-1H-[1,4]diazepino[1,2-a]indole-8-carboxamide] |
| 19 | CC(C)(C)n1c(NC(=O)c2ccc3cc4n(c3c2)CCCNC4=O)nc2ccccc21 [Example 65, N-(1-tert-butyl-1H-benzimidazol-2-yl)-1-oxo-2,3,4,5-tetrahydro-1H-[1,4]diazepino[1,2-a]indole-8-carboxamide] |
| 25.5 | O=C(Nc1ncc[nH]1)c1ccc2cc3n(c2c1)CCCNC3=O [Example 108, N-(1H-imidazol-2-yl)-1-oxo-2,3,4,5-tetrahydro-1H-[1,4]diazepino[1,2-a]indole-8-carboxamide] |
| 66 | CC(C)c1cc(NC(=O)c2ccc3cc4n(c3c2)CCCNC4=O)no1 [Example 213, 1-oxo-N-[5-(propan-2-yl)-1,2-oxazol-3-yl]-2,3,4,5-tetrahydro-1H-[1,4]diazepino[1,2-a]indole-8-carboxamide] |
| 3 | Cc1ccc2[nH]c(NC(=O)c3ccc4cc5n(c4c3)CCCNC5=O)nc2c1 [Example 39, N-(5-methyl-1H-benzimidazol-2-yl)-1-oxo-2,3,4,5-tetrahydro-1H-[1,4]diazepino[1,2-a]indole-8-carboxamide] |
